Source: ChEMBL document CHEMBL1201862, “PubChem BioAssay data set” (2004)
The source made the active and inactive calls.

Columns and labels:
[1] = CTGF mRNA reduction in DLD1 cells – cell-based, DLD1 colon cancer, RT-qPCR, cherry-pick, dose response (AID 1053122); type: functional; settings: Cancer cell lines
[2] = viability inhibitors of stage V gametocytes – luminescence, dose response (AID 1117278); type: functional, cell-based;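 further: gametocytes exposed to compound for 24 hours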
[3] = viability loss in human Jurkat cells – cell-based, luminescence, cytotoxicity control for P. falciparum gametocyte viability project, dose response (AID 1117277); type: functional;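 further: potency reflects loss of cellular ATP meaning fewer viable cells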
HEK293 [4] = assay: inhibition of NOD1-driven NF-kB reporter – cell-based, luminescence, uHTS, primary screen (AID 1578); type: functional; settings: Homo sapiens
HEK293 [5] = assay: cells; type: functional, cell-based; settings: Homo sapiens
HEK293 [6] = assay: cells; type: functional, cell-based; settings: Homo sapiens; remark: listed apart in the source
[7] = molecular target: Nucleotide-binding oligomerization domain-containing protein 2 (Homo sapiens, UniProt Q9HC29); assay: inhibition of NOD2-driven NF-kB reporter – cell-based, luminescence, uHTS, HEK293 (AID 1566); type: functional
Chain of Nucleotide-binding oligomerization domain-containing protein 2 (Q9HC29 whole entry, the tested form may be a part): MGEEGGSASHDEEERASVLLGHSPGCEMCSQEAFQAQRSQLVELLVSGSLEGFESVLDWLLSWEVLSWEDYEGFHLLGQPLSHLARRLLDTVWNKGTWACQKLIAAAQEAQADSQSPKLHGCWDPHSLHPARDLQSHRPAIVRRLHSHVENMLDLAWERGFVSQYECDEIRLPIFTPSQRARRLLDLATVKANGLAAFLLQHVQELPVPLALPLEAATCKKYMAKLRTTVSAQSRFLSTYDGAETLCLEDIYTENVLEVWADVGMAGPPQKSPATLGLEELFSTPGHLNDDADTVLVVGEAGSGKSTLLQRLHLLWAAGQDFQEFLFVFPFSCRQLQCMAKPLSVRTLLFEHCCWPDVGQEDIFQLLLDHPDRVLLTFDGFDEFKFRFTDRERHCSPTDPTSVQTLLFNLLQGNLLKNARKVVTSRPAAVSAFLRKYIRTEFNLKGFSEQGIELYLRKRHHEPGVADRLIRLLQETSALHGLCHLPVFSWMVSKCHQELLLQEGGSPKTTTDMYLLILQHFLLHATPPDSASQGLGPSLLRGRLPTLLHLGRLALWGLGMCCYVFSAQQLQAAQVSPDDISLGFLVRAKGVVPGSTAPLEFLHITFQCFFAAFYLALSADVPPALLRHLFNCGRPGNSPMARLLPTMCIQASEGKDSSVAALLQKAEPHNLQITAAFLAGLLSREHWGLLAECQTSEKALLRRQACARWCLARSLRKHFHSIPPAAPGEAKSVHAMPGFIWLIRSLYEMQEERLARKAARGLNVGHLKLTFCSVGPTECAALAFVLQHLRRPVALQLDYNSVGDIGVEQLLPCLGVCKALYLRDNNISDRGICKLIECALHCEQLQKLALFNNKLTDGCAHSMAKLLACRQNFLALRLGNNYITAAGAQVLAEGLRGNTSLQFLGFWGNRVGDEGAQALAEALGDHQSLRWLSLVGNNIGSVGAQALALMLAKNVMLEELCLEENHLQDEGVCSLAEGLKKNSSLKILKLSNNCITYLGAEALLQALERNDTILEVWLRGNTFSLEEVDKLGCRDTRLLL

HEK293 [8] = assay: NOD2 signaling inhibitors in MDP-stimulated cells, cell-based, uHTS, luminescence (AID 2001); type: functional; settings: Homo sapiens
HEK293 [9] = assay: cells; type: functional, cell-based; settings: Homo sapiens; remark: listed apart in the source
INS1 = assay: INS-1E survival protection against cytokine death – cell-based, luminescence, retest, dose response (AID 449756); type: functional; settings: Rattus norvegicus, INS1;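 further: cell death triggered by IL-1 beta plus TNF-alpha plus IFN-gamma mixture; protective hits raise ATP signal compared with cytokine alone wells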
[10] = reduction of Shn3 3'UTR-driven luciferase in osteoblasts – cell-based, Clone20 osteoblasts, firefly luciferase, cherry-picked, dose response (AID 624132); type: functional;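 further: firefly luciferase luminescence from reporter carrying the Shn3 3'UTR in osteoblasts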
[11] = loss of viability in HepG2 cells – cell-based, CellTiter-Glo, cherry-picked, cytotoxicity control for Shn3 inhibitor project, dose response (AID 624134); type: functional
[12] = Shn3 3'UTR reporter signal decrease – cell-based, Clone20 osteoblasts, firefly luciferase, cherry-pick, set 2, Schnurri-3 inhibitor project, dose response (AID 720490); type: functional;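 further: actives lower the luminescence signal as inhibitors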
[13] = NIH-3T3 fibroblast cytotoxicity, dose response, cytotoxicity control, cell-based, fluorescence, Alamar Blue, secondary assay (AID 2327); type: functional;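 further: NIH-3T3 mouse fibroblasts cultured with fluconazole at 8 µg/mL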
[14] = fluconazole-exposed Candida albicans growth modulators – fluorescence, retest, confirmation (AID 2467); type: functional, cell-based
[15] = molecular target: Voltage-gated inwardly rectifying potassium channel KCNH2 (Homo sapiens, UniProt Q12809); assay: concentration-dependent hERG rescue from blockers – cell-based, thallium flux, dose response (AID 2121); type: ADME
Chain of Voltage-gated inwardly rectifying potassium channel KCNH2 (Q12809 whole entry): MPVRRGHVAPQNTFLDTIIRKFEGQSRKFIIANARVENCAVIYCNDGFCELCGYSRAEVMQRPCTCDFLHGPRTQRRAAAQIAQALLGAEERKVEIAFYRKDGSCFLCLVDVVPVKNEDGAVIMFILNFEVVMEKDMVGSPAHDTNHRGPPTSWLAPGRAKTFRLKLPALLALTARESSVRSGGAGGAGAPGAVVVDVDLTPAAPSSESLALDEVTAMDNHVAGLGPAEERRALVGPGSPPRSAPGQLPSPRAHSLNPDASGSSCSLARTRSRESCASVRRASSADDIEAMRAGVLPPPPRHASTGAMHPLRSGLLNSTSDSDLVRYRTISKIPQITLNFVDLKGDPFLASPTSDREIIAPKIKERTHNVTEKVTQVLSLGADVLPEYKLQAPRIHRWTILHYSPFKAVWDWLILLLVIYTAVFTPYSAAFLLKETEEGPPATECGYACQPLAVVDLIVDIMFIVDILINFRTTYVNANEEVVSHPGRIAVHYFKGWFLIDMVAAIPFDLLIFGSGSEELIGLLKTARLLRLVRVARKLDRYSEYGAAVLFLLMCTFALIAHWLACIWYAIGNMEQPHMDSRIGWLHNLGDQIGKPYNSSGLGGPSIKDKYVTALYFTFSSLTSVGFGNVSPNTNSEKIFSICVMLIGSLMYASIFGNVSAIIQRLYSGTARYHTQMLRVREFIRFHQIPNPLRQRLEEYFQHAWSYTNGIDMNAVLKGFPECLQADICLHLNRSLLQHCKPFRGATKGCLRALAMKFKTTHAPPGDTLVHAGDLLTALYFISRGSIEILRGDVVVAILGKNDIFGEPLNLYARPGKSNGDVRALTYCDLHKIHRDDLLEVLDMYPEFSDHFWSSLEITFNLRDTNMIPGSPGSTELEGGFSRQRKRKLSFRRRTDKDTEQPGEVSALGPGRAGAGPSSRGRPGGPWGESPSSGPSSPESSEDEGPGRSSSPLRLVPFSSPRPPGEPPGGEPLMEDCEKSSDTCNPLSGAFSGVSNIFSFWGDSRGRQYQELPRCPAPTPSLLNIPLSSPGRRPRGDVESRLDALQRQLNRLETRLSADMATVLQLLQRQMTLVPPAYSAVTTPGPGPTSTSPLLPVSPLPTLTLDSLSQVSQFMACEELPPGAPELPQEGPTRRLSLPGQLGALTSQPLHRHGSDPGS

[16] = molecular target: Luciferin 4-monooxygenase (Photinus pyralis, UniProt P08659); assay: inhibition of purified Photinus pyralis luciferase – biochemical, luminescence, dose response (AID 1891)
Chain of Luciferin 4-monooxygenase (P08659 whole entry): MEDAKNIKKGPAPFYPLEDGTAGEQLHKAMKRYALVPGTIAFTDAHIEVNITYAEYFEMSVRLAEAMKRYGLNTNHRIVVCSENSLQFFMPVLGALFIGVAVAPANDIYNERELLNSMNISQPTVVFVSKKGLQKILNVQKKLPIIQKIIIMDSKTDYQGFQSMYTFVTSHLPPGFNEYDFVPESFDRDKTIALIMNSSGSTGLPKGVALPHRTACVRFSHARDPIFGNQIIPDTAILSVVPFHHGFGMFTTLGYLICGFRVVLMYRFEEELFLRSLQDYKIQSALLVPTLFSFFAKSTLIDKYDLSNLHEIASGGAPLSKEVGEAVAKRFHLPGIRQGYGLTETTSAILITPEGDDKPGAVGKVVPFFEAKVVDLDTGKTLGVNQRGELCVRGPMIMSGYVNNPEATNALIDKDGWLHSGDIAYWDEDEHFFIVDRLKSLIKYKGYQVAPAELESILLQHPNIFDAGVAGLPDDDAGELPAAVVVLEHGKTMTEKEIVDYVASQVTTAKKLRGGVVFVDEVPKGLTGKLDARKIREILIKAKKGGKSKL

[17] = Luminescence Cell-Based Dose Confirmation HTS to Identify Inhibitors of Platelet Dense Granule Release. [Related pubchem assays: 1663 (Primary HTS), 1678 (Summary of Project)]; type: functional
[18] = Luminescence-based counterscreen assay for KLF5 inhibitors: dose response cell-based high throughput screening assay to identify cytotoxic compounds using the IEC-6 intestinal epithelial cell line. [Related pubchem assays: 1700 (Primary screen.), 1834 (Confirmation screen.), 1858 (Summary AID.), 1905 (Counterscreen.)]; type: functional
Paired box protein Pax-8 = Paired box protein Pax-8 (Homo sapiens, UniProt Q06710); assay: PAX8 transcriptional activity inhibition in RMG-I – RMG-I cells, luciferase, cherry-pick, dose response (AID 687027); type: functional, cell-based;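 further: luciferase reporter driven by Pax8 target thyroperoxidase promoter measured by SteadyGlo luminescence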
Chain of Paired box protein Pax-8 (Q06710 whole entry): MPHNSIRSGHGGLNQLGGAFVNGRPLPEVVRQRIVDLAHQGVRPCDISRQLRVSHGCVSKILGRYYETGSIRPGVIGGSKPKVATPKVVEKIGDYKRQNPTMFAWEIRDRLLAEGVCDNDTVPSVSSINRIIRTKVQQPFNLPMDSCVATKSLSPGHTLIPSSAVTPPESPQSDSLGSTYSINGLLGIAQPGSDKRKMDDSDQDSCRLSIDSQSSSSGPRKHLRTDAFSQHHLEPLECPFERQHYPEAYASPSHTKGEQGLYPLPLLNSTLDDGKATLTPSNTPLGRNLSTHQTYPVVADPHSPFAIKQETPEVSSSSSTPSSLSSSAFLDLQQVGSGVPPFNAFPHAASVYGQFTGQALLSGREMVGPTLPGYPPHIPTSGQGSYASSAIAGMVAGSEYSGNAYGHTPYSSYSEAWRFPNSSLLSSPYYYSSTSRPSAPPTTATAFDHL

[19] = molecular target: COUP transcription factor 2 (Homo sapiens, UniProt P24468); assay: Luminescence-based cell-based high throughput dose response assay to identify inhibitors of COUP-TFII (NR2F2).; type: functional;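 further: HEK293 cells transiently cotransfected with COUP-TFII expression vector and reporter; luciferase reporter luminescence driven by COUP-TFII from the pX2-168 reporter plasmid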
Chain of COUP transcription factor 2 (P24468 whole entry): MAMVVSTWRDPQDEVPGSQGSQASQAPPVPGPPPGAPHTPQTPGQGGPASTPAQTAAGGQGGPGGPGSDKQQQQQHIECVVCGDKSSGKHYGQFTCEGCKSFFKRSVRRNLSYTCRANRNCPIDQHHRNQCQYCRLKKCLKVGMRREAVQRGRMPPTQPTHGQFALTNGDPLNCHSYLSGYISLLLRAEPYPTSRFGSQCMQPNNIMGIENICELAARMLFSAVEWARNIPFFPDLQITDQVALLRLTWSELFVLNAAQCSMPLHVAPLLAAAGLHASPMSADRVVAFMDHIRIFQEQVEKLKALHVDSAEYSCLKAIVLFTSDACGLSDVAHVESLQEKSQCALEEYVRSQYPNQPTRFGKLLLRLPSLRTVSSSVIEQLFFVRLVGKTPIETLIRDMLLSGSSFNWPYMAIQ

Beta-galactosidase = Beta-galactosidase (Escherichia coli, UniProt Q8VNN2); assay: detection-enzyme interference by beta-gal modulators – biochemical, E. coli enzyme, set 3, artefact control for CCR6 antagonist project, dose response (AID 504712); type: functional
Chain of Beta-galactosidase (Q8VNN2 whole entry): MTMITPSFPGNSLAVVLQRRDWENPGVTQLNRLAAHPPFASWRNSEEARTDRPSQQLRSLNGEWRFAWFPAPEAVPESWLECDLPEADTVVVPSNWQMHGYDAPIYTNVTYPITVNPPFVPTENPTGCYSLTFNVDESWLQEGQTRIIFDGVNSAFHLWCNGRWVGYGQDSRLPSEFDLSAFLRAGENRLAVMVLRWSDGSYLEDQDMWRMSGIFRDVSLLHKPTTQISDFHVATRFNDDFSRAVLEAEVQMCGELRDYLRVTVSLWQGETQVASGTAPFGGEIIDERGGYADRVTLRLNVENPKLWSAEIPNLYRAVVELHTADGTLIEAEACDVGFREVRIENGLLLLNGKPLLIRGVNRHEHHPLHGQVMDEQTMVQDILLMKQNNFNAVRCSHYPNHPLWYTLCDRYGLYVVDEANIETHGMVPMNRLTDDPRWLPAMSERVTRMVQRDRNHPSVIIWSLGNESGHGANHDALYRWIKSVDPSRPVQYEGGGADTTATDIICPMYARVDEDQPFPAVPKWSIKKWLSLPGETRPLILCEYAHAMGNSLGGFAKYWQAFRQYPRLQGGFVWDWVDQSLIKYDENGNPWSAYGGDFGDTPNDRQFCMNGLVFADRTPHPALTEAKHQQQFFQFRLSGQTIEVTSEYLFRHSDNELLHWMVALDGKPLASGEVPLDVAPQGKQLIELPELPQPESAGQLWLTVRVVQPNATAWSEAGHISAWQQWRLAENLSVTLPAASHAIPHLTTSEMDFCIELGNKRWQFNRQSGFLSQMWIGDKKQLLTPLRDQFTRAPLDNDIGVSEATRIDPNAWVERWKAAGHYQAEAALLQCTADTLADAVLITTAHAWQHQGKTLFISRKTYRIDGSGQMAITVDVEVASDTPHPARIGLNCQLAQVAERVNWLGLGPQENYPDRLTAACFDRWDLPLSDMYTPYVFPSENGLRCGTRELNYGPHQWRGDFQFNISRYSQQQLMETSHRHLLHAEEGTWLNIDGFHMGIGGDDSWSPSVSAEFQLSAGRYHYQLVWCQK

[20] = HGIII-sPLA2 enzyme inhibition potency – biochemical, QFRET, IC50, dose response (AID 743457);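 further: green fluorescence rise as the enzyme cleaves BODIPY PC-A2 in liposomes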
[21] = toxicity toward immortalized ovarian surface epithelium – cell-based, plate reader, dry powder samples, cytotoxicity control for PAX8 inhibitor project, dose response (AID 743045); type: functional
[22] = A2780 cell killing – plate reader, dry powder samples, cytotoxicity control, dose response (AID 743046); type: functional, cell-based
[23] = OVCAR-3 cell viability loss – plate reader, dry powder samples, PAX8 inhibitor project, dose response (AID 743044); type: functional, cell-based
[24] = IGROV1 cell killing – plate reader, dry powder samples, PAX8 inhibitor project, dose response (AID 743043); type: functional, cell-based; settings: IGROV-1
[25] = general cell-killing toxicity readout – plate reader, dry powder samples, cytotoxicity control for PAX8 inhibitor project, dose response (AID 743021); type: functional, cell-based
[26] = OVCAR8 cell viability loss – plate reader, dry powder samples, PAX8 project, dose response (AID 743197); type: functional, cell-based; settings: OVCAR-8

In the case of `COc1ccc(NC(=O)N2CCCCN3[C@@H](CO)[C@H](c4ccc(-c5ccccc5F)cc4)[C@@H]3C2)cc1`, the AC50 [1] is reported as 2.72 µM (active).
For `COC(=O)c1cc(NC(=O)c2ccc(-c3ccccc3)cc2)ccc1Cl`, the IC50 [2] was > 109 µM (inactive) and the IC50 [3] was > 83.3 µM (inactive).
For `COc1ccc(CC(=O)Nc2ccncc2Cl)cc1`, the EC50 (HEK293 [4]) was 4.73 µM (active), the IC50 (HEK293 [5]) was 14 µM (active) and the IC50 (HEK293 [6]) was > 20 µM (inactive). For the same compound, the EC50 [7] was 14.9 µM (active), the IC50 (HEK293 [8]) was 17.8 µM (inactive) and the IC50 (HEK293 [9]) was > 20 µM (inactive). The AC50 (INS1) was 5.67 µM (active), the AC50 [10] was 2.12 µM (active) and the AC50 [11] was 57.3 µM (active). For the same compound, the AC50 [12] was 2.13 µM (active).
For `CCOc1ccc2nc(N3C(=O)/C(=C/c4ccccc4)NC3=S)sc2c1`, the EC50 [13] was > 150 µM (inconclusive), the EC50 [14] was 3.03 µM (active) and the EC50 [15] was 0.44 µM (active).
For `CCCc1ccc(C(=O)O/N=C(\N)c2ccccn2)cc1`, the EC50 [16] was 0.407 µM (active), the EC50 [17] was 1.2 µM (active) and the IC50 [18] was 27.8 µM (not active). The AC50 (Paired box protein Pax-8) was 5.93 µM (active) and the IC50 [19] was 22.1 µM (inactive).
With `O=C(NC(=S)Nc1ccccc1N1CCCC1)c1ccc([N+](=O)[O-])cc1` the EC50 [15] was 3.24 µM (active), the IC50 (Beta-galactosidase) was > 66.6 µM (inactive) and the IC50 [20] was 44.6 µM (inactive).
With `C[C@H](CO)N1C[C@H](C)[C@@H](CN(C)C(=O)Nc2ccc3c(c2)OCO3)Oc2cc(C#Cc3ccncc3)ccc2S1(=O)=O` the AC50 (Paired box protein Pax-8) was 3.02 µM (active), the AC50 [21] was 5.8 µM (active) and the AC50 [22] was 10.9 µM (active). The AC50 [23] was 5.21 µM (active), the AC50 [24] was 13.7 µM (active) and the AC50 [25] was 47.5 µM (active). The AC50 [26] was 8.81 µM (active).
For `Cc1ccc(S(=O)(=O)NCC(=O)N(CC(=O)NC2CCCC2)c2ccc3c(c2)OCCO3)cc1`, the IC50 [2] was > 109 µM (inactive) and the IC50 [3] was > 83.3 µM (inactive).
